Results: publication PMC2789237 (Analytical Biochemistry, 2010)

Legend:
[1] = target: T1, pteridine reductase 1 (TbPTR1) (Trypanosoma brucei, UniProt O76290); assay: cocrystal structure of ternary complex with DDD00066641; assay type: binding
T1 construct: gene PTR1; N-terminal hexahistidine-tagged protein
T1 sequence (O76290 1-268): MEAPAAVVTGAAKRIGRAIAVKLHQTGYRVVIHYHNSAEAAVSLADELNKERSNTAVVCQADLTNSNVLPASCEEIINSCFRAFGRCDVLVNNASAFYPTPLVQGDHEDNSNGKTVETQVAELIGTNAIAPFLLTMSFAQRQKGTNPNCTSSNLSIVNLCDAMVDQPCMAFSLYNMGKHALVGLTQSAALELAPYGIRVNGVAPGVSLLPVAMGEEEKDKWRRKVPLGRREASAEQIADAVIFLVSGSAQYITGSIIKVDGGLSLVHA

[2] = target: T1, pteridine reductase 1 (TbPTR1); assay: cocrystal structure of ternary complex; cyt c-coupled enzyme inhibition assay; assay type: biochemical
[3] = substrate: C[C@H](O)[C@H](O)C1=Nc2c(nc(N)[nH]c2=O)NC1; assay: HPLC enzyme kinetics (Km app), with substrate inhibition; assay type: biochemical, Trypanosoma brucei; conditions: NADPH
[4] = substrate: NC(=O)C1=CN([C@@H]2O[C@H](COP(=O)(O)OP(=O)(O)OC[C@H]3O[C@@H](n4cnc5c(N)ncnc54)[C@H](OP(=O)(O)O)[C@@H]3O)[C@@H](O)[C@H]2O)C=CC1; assay: HPLC enzyme kinetics (Km app, data not shown); assay type: biochemical, Trypanosoma brucei; conditions: varied: cofactor

## NC(=O)c1ccc[n+]([C@@H]2O[C@H](COP(=O)(O)OP(=O)(O)OC[C@H]3O[C@@H](n4cnc5c(N)ncnc54)[C@H](OP(=O)(O)O)[C@@H]3O)[C@@H](O)[C@H]2O)c1 [NADP+]
[1]
  cocrystal structure of ternary complex with DDD00066641: The structure of the ternary complex of TbPTR1 with this ligand and the cofactor NADP^+ was obtained by cocrystallization

## Cc1ccc(-c2ccc3nc(N)nc(N)c3c2)cc1 [DDD00066641, 6-p-tolylquinazoline-2,4-diamine]
[2]
  Ki: 3 ± 0.8 nM

B1: pteridine reductase 1 (TbPTR1) (Trypanosoma brucei brucei) (protein)
chain: MEAPAAVVTGAAKRIGRAIAVKLHQTGYRVVIHYHNSAEAAVSLADELNKERSNTAVVCQADLTNSNVLPASCEEIINSCFRAFGRCDVLVNNASAFYPTPLVQGDHEDNSNGKTVETQVAELIGTNAIAPFLLTMSFAQRQKGTNPNCTSSNLSIVNLCDAMVDQPCMAFSLYNMGKHALVGLTQSAALELAPYGIRVNGVAPGVSLLPVAMGEEEKDKWRRKVPLGRREASAEQIADAVIFLVSGSAQYITGSIIKVDGGLSLVHA
notes: N-terminal hexahistidine-tagged protein
[3]
  Km: 25 ± 6.7 nM
[4]
  Km: 1.6 ± 0.1 µM
